Ends that are not written are not given here.
T1: Spt7 bromodomain (residues 363–619) (UniProt P35177 363-619)
T1 construct: Spt7, bromodomain construct, amino acids 363-619; also called purified recombinant Spt7 bromodomain; source: recombinant, expressed and purified as described (Boubriak et al., 2009)
T1 sequence (looked up): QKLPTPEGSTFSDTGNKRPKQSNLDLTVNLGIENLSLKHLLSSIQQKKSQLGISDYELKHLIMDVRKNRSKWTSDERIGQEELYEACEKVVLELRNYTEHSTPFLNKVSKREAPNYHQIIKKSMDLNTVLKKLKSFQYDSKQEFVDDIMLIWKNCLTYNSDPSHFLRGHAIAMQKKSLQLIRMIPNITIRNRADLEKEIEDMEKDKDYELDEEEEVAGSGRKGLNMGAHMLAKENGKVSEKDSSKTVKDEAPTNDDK


Legend:
[1] = test system: Spt7 bromodomain (residues 363–619); assay: SPR binding of H3 peptides to immobilized Spt7 bromodomain; design: species or system yeast; conditions: for Binding to Spt7 bromodomain: SPR, Biacore T100/T200, 25°C, peptides 1-200 µM in HBS-P+, NTA chip-captured His-tagged bromodomain, 1:1 model, Figure 6A, n = 2–11
From the text: (§1) We developed a second assay that involves monitoring the effect of the P16V substitution on the binding of the Spt7 bromodomain to an H3 peptide modified by acetylation at K14 and/or K18 using surface plasmon resonance (SPR) (Figures 6A, S4A, and S4B) or by pull downs (Figures 6B and S4C). Bromodomains are acetyl-lysine binding domains, found in a number of chromatin-associated proteins ([Taverna et al., 2007]) including Spt7. The function and binding specificity of the Spt7 bromodomain are currently unknown, but it preferentially interacts with hyperacetylated histones in vitro ([Hassan et al., 2007]). […] The binding of the Spt7 bromodomain to the P16V-substituted K18ac peptide improved binding by ∼2-fold. […] We reasoned that this could reflect an effect of the side chain on binding or an influence on the conformation of the A15-P16 bond. […] The corollary of this is that acetylation of K14 would correlate with the A15-P16 bond in the trans configuration, supporting ideas that the peptidyl-prolyl bond conformation is mainly determined by local effects in proteins ([Reimer et al., 1998]).
(§2) Figure 6 K14ac Promotes P16trans (A) Relative binding ± SEM (n = 2–11) assessed by surface plasmon resonance of purified recombinant Spt7 bromodomain (residues 363–619) to the indicated H3 peptides (11–26). (B) Coomassie-stained gel showing a pull-down experiment, quantified relative to the K18ac peptide, with the indicated H3 peptides and the purified recombinant Spt7 bromodomain (n = 3). (C) A chymotrypsin-coupled assay for proline isomers using synthetic hexamers based on GGKAPF-pNA (unmodified). pNA is released by chymotrypsin cleavage only from the trans-proline-containing peptide. (D) K14ac and substitutions at K14 influence isomerization at A15-P16 and pNA release, expressed as mean initial rate ± SEM (n = 4–5) over the first 0.6–10.2 s of the reaction. (E) Schematic showing how K14ac or the K14R substitution influence A15-P16 conformation. (F) Schematic showing how dynamic K14ac influences A15-P16 conformation and K4me3 (K4 and K14 denote that these residues are not trimethylated or acetylated respectively). (G) The balance of positive-acting factors (right panel) and negative-acting factors (left panel) controls levels of K4me3 at individual genes. […] See also Figure S4. […]
(n=5771) with the ratios of H3-normalised K4me3 in the K14A and P16V strains relative to the WT strain. Genes with ratios > 2 (n = 7 and 4 for K14A/WT and P16V/WT respectively) have been removed for clarity. Highlighted are the genes with the 200 highest and lowest ratios selected for further analysis (K14/P16-independent and K14/P16-dependent gene classes respectively). (C) Overlap (%) between the four selected gene classes from Figure S3B and the genes temporally expressed during the yeast metabolic cycle (YMC: OX, oxidative; R/B, reductive building; R/C, reductive charging phase), induced/repressed by the environmental stress response (ESR), classed as ribosomal protein genes (RPGs) or ribosome biogenesis genes (Ribis), or regulated predominantly by SAGA or TFIID. […]
YMC and ESR expression data were taken from (Tu et al., 2005) and (Gasch et al., 2000) respectively. SAGA/TFIID-regulated genes were obtained from (Huisinga and Pugh, […]
Figure S4. (Related to Figure 6)
(A) Surface plasmon resonance (SPR) affinity fits for the indicated H3 peptides encompassing residues 11-26 binding to the Spt7 bromodomain (residues 363-619). Also shown is a typical sensorgram of H3 peptide binding to the Spt7 bromodomain […]
values ± SEM for Spt7 binding to variously-modified H3 peptides. (C) A peptide pull-down experiment with a range of H3 peptides and the WT or substituted Spt7 bromodomain […]
Peptides for bromodomain interaction studies
Peptides were synthesized at GL Biochem (Shanghai) LTD, China and Proteogenix, France.
(§3) Purity was determined with MALDI-TOF mass spectrometry and HPLC and the peptides used […]
The peptide sequences are listed in the […]

[2] = test system: Spt7 bromodomain (residues 363–619); assay: Peptide pull-down with Spt7 bromodomain; format: binding, yeast; conditions: for Binding to Spt7 bromodomain: SulfoLink resin, bromodomain 30 µg/ml, 2 h at 4°C, Coomassie gel, relative to K18ac peptide, Figure 6B, n = 3
From the text: as §1, §2
(n=5771) with the ratios of H3-normalised K4me3 in the K14A and P16V strains relative to the WT strain. Genes with ratios > 2 (n = 7 and 4 for K14A/WT and P16V/WT respectively) have been removed for clarity. Highlighted are the genes with the 200 highest and lowest ratios selected for further analysis (K14/P16-independent and K14/P16-dependent gene classes respectively). […]
as §3

[3] = test system: bromodomain carrying alanine substitutions (Y500A/Y520A/N521A); assay: Peptide pull-down with substituted Spt7 bromodomain; format: binding, yeast; conditions: bromodomain with alanine at Y500, Y520 and N521, Figure S4C
From the text: as §1, with “1998]). […]” for “1998]).”
bin expressed as a proportion of the total K4me3 across the gene. […] P values were calculated from a simulated probability distribution curve. […]
as §3

[4] = biological target: T1, Spt7 bromodomain (residues 363–619); assay: SPR; peptides binding to immobilized Spt7 bromodomain; Biacore T100 and T200, 25°C; 1:1 binding model; relative binding; conditions: both partners purified

Molecule | Binding to Spt7 bromodomain [1] | Binding to Spt7 bromodomain [2] | also measured
TGGRAVR(Kac)QLASKAARC [valine substitution at P16 in the K14R-K18ac peptide] | restored binding at levels between the P16V-K18ac and K18ac peptides |  | 
TGGKAVR(Kac)QLASKAARC [P16V-K18ac, H3 peptide (11–26), P16V, acetylated K18] |  |  | Improvement of binding to Spt7 bromodomain on P16V substitution ([1]; P16V-substituted versus K18ac peptide, SPR (text does not say whether SPR or pull-down), 25°C): ~2 fold
TGGKAPR(Kac)QLASKAARC [K18ac, H3 peptide (11–26) acetylated at K18] | specifically recognized acetylated K18 | specifically recognized acetylated K18 | Enrichment of binding over the unmodified peptide ([2]; WT versus Y500A/Y520A/N521A bromodomain, Figure S4C): enriched; Binding to substituted Spt7 bromodomain [3]: lack of binding
TGG(Kac)APR(Kac)QLASKAARC [peptide acetylated at both K14 and K18] | binding to the Spt7 bromodomain similar to the P16V-K18ac peptide |  | 
TGGRAPR(Kac)QLASKAARC [K14R-K18ac, H3 peptide (11–26), K14R, acetylated K18] | no binding was observed |  | 
TGG(Kac)APRKQLASKAARC [peptide acetylated at K14, H3 peptide (11–26) acetylated at K14, for bromodomain studies] | lack of binding | lack of binding | 
TGGKAPRKQLASKAARC [unmodified H3 peptide, H3 peptide (11–26), unmodified, for bromodomain studies] | lack of binding | lack of binding | 
TGGRAVRK(Ac)QLASKAAR (peptide, UniProt P61830 12-27, looked up, histone H3, residues 11-26; also called K14R-P16V-K18ac peptide; source: synthetic peptide (GL Biochem and Proteogenix)) [K14R-K18ac H3 peptide (11–26) with a valine substitution at P16] |  |  | binding result [4]: binds
TGGKAVRK(Ac)QLASKAAR (peptide, UniProt P61830 12-27, looked up, histone H3, residues 11-26; also called P16V-K18ac peptide; P16V-K18ac; source: synthetic peptide (GL Biochem and Proteogenix)) [P16V-substituted K18ac H3 peptide (11–26)] |  |  | fold change of binding against the K18ac peptide [4]: ~2 fold
